Test systems include KM12 colon; SNB-19 CNS; HCT-116 colon; NCI-H23 lung; LOX IMVI melanoma; TK-10 renal; SK-MEL-5 melanoma; OVCAR-3 ovarian; PC-3 prostate; BT-549 breast.
Holding throughout (test): DTP human tumour cell line panel, 48 h

Molecules are shown by their SMILES. Several values for one entry are separate records, joined by “and”; a condition that tells them apart may be missing. Equal values may be shown once.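 The compound was tested at five concentrations on cells cultured in 96-well plates, with a 48-hour exposure period. GI50: concentration for 50% inhibition of growth. TGI marks complete inhibition of growth.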

On to `CCCCCCC(=O)CC(=O)C(=O)Nc1ccccc1C`, for which the TGI in the assay on KM12 colon was more than 100 µM; in the assay on SNB-19 CNS, more than 100 µM; in the assay on HCT-116 colon, more than 100 µM; in the assay on NCI-H23 lung, more than 100 µM; with LOX IMVI melanoma, more than 59 µM; in the assay with TK-10 renal it was more than 100 µM. Besides, the total growth inhibition concentration (TGI) with SK-MEL-5 melanoma and in the assay with OVCAR-3 ovarian was more than 100 µM in each case.

For the compound `CCOc1cc[n+](C(=C=[N-])C#N)cc1`, the TGI in the assay with KM12 colon, with SNB-19 CNS, with HCT-116 colon, with NCI-H23 lung, in the assay with LOX IMVI melanoma and with TK-10 renal was more than 100 µM throughout. Moreover, the TGI with SK-MEL-5 melanoma and in the assay on OVCAR-3 ovarian was more than 100 µM each time.

`COc1ccc([Se]c2ccc(OC)cc2)cc1`: the TGI with KM12 colon, in the assay on SNB-19 CNS, in the assay on HCT-116 colon, in the assay with NCI-H23 lung, in the assay with LOX IMVI melanoma and in the assay with TK-10 renal was more than 100 µM in each case. Besides, the TGI in the assay on SK-MEL-5 melanoma and in the assay on OVCAR-3 ovarian was more than 100 µM throughout.

On to `O=C(CN1CCN(c2ccccn2)CC1)Nc1ccc(Cl)cc1C(=O)c1ccccc1Cl`, for which the GI50 is 7.73 µM in the assay on KM12 colon; 79.6 µM in the assay with SNB-19 CNS; 6 µM with PC-3 prostate; 10 µM in the assay with HCT-116 colon; 86.2 µM in the assay with NCI-H23 lung; 41.6 µM in the assay on LOX IMVI melanoma. The GI50 in the assay on TK-10 renal was more than 100 µM; in the assay with BT-549 breast it was 81.4 µM; with SK-MEL-5 melanoma it was 10.2 µM. The total growth inhibition concentration (TGI) with KM12 colon, with SNB-19 CNS, with PC-3 prostate, with HCT-116 colon, in the assay on NCI-H23 lung and with LOX IMVI melanoma was more than 100 µM in each case. The TGI with TK-10 renal was more than 100 µM; in the assay on BT-549 breast, more than 100 µM; in the assay with SK-MEL-5 melanoma, 38.3 µM.

Turning to `Nc1cc(N)c2nc(-c3ccccc3)c(Oc3ccc(Cl)c(Cl)c3)nc2c1`, the GI50 with KM12 colon is 6.38 µM; in the assay on SNB-19 CNS, 20.9 µM; in the assay with PC-3 prostate, 15.5 µM; in the assay on HCT-116 colon it was 15.7 µM; in the assay on NCI-H23 lung, 15.6 µM; in the assay with LOX IMVI melanoma, 16.1 µM. For the same compound, the figures for the GI50 in the assay on TK-10 renal, in the assay with SK-MEL-5 melanoma and in the assay with OVCAR-3 ovarian were 17.6 µM, 9.77 µM and 10.8 µM, respectively. The TGI in the assay on KM12 colon is 39.8 µM; in the assay on SNB-19 CNS it was 52.5 µM; in the assay with PC-3 prostate, more than 100 µM; in the assay with HCT-116 colon, 48.3 µM; in the assay with NCI-H23 lung, 39.9 µM; with LOX IMVI melanoma, 34 µM. Also, the values for the TGI with TK-10 renal, in the assay on SK-MEL-5 melanoma and in the assay with OVCAR-3 ovarian were 38 µM, 28.7 µM and 26.9 µM, respectively.

Regarding `NC(N)=NC(N)=NCc1ccco1`, the GI50 is more than 1250 µM with KM12 colon; more than 1250 µM with SNB-19 CNS; 508 µM and 492 µM with HCT-116 colon; 869 µM and 661 µM with NCI-H23 lung; 581 µM with LOX IMVI melanoma; more than 1250 µM in the assay on TK-10 renal. Besides, the GI50 in the assay with BT-549 breast was 336 µM and 974 µM; in the assay with SK-MEL-5 melanoma it was 363 µM and 119 µM; in the assay with OVCAR-3 ovarian, 847 µM. Besides, the TGI in the assay on KM12 colon, with SNB-19 CNS, with HCT-116 colon, in the assay on NCI-H23 lung, with LOX IMVI melanoma and in the assay on TK-10 renal was more than 1250 µM each time. The TGI with BT-549 breast, in the assay with SK-MEL-5 melanoma and with OVCAR-3 ovarian was more than 1250 µM each time.

On to `Nc1ncnc2c1ncn2COC/C=C/I`, for which the concentration for total growth inhibition (TGI) with KM12 colon, with SNB-19 CNS, in the assay on HCT-116 colon, in the assay with NCI-H23 lung, in the assay with LOX IMVI melanoma and in the assay with TK-10 renal was more than 100 µM each time. The concentration for total growth inhibition (TGI) with SK-MEL-5 melanoma and in the assay with OVCAR-3 ovarian was more than 100 µM in each case.

`CN/N=C(/CC(=O)c1sc(NNC(C)=O)nc1C)C(=O)Nc1ccc(OC)cc1OC`: the total growth inhibition concentration (TGI) in the assay with KM12 colon, with SNB-19 CNS, with HCT-116 colon, with NCI-H23 lung, in the assay on LOX IMVI melanoma and in the assay on TK-10 renal was more than 100 µM throughout. Also, the concentration for total growth inhibition (TGI) in the assay with SK-MEL-5 melanoma and in the assay on OVCAR-3 ovarian was more than 100 µM throughout.

Consider `O=S1(=O)C=C(c2ccccc2)C(c2ccccc2)=C1`, for which the GI50 was 1.63 µM in the assay on KM12 colon; 1.98 µM with SNB-19 CNS; 1.79 µM with PC-3 prostate; 1.09 µM with HCT-116 colon; 1.86 µM with NCI-H23 lung; 1.69 µM in the assay on LOX IMVI melanoma. Further, the GI50 was 1.57 µM with SK-MEL-5 melanoma and 1.56 µM in the assay with OVCAR-3 ovarian. Besides, the TGI is 3.2 µM in the assay with KM12 colon; 4.63 µM in the assay with SNB-19 CNS; 4.52 µM with PC-3 prostate; 2.28 µM in the assay on HCT-116 colon; 3.93 µM in the assay on NCI-H23 lung; 3.05 µM in the assay on LOX IMVI melanoma. Besides, the concentration for total growth inhibition (TGI) in the assay on SK-MEL-5 melanoma and with OVCAR-3 ovarian was 2.9 µM throughout.

Regarding `CC(=O)N1CCN(C=S)CC1`, the TGI in the assay with KM12 colon, in the assay with SNB-19 CNS, with HCT-116 colon, in the assay on NCI-H23 lung, with LOX IMVI melanoma and in the assay with TK-10 renal was more than 100 µM throughout. Moreover, the TGI with SK-MEL-5 melanoma and in the assay on OVCAR-3 ovarian was more than 100 µM throughout.

As for `COc1ccc2c(c1)O/C(=C\c1ccc([N+](=O)[O-])s1)C2=O`, the GI50 in the assay on SNB-19 CNS was more than 22 µM; in the assay on PC-3 prostate, 1.81 µM; in the assay with NCI-H23 lung, 1.33 µM; in the assay with TK-10 renal, more than 22.5 µM. Also, the TGI in the assay with SNB-19 CNS is more than 100 µM; in the assay with PC-3 prostate, more than 100 µM; in the assay on NCI-H23 lung, 5.92 µM; in the assay with TK-10 renal, more than 100 µM.

On to `ClCCCN1CCCCC1CCl` (centres undefined), for which the TGI with KM12 colon, in the assay on SNB-19 CNS, in the assay on HCT-116 colon, in the assay with NCI-H23 lung, with LOX IMVI melanoma and in the assay on TK-10 renal was more than 100 µM in each case. Besides, the TGI in the assay on SK-MEL-5 melanoma and in the assay on OVCAR-3 ovarian was more than 100 µM each time.

As a reminder, the TGI is the concentration at which net growth stops. Lower therefore signals greater sensitivity of the cells. Broadly, the GI50 is the concentration that inhibits growth by half.

The values above are taken from PubChem BioAssay (NCI).
